Like-named read-outs stand apart in the source and are kept apart here.
Experiments:
TBK1 = TBK1 (Homo sapiens (Human), UniProt Q9UHD2); assay: TBK1 TR-FRET enzymatic assay;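 also: phosphorylation of a biotinylated Ser/Thr peptide by purified full-length recombinant TBK1, read by TR-FRET after 240 min at 25 °C, IC50 is the geometric mean of at least four runs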
Description: Enzymatic activity of IKKε and TBK1 was measured using a homogeneous time resolved fluorescence resonance energy transfer (TR-FRET) assay that monitors enzyme dependent phosphorylation of a biotinylated serine/threonine peptide substrate. […] TBK1 and IKKε were expressed and purified as full length recombinant proteins. Detection reagents for the assay were purchased from Cisbio. […] After an assay reaction time of 240 minutes at 25° C., reactions were terminated with EDTA.
All IC50 values represent geometric mean values of a minimum of four determinations.

IKKε = IKKε (Homo sapiens (Human), UniProt Q14164); assay: IKKε TR-FRET enzymatic assay; type: biochemical; conditions: read-out: IKKe IC50
hJAK2 = hJAK2 (Homo sapiens (Human), UniProt O60674); assay: hJAK2 LANCE TR-FRET enzymatic assay; type: biochemical; conditions: read-out: JAK2 IC50
[1] = TR-FRET, 2×Km ATP, geometric mean of minimum four determinations

Chain of hJAK2 (O60674 whole entry): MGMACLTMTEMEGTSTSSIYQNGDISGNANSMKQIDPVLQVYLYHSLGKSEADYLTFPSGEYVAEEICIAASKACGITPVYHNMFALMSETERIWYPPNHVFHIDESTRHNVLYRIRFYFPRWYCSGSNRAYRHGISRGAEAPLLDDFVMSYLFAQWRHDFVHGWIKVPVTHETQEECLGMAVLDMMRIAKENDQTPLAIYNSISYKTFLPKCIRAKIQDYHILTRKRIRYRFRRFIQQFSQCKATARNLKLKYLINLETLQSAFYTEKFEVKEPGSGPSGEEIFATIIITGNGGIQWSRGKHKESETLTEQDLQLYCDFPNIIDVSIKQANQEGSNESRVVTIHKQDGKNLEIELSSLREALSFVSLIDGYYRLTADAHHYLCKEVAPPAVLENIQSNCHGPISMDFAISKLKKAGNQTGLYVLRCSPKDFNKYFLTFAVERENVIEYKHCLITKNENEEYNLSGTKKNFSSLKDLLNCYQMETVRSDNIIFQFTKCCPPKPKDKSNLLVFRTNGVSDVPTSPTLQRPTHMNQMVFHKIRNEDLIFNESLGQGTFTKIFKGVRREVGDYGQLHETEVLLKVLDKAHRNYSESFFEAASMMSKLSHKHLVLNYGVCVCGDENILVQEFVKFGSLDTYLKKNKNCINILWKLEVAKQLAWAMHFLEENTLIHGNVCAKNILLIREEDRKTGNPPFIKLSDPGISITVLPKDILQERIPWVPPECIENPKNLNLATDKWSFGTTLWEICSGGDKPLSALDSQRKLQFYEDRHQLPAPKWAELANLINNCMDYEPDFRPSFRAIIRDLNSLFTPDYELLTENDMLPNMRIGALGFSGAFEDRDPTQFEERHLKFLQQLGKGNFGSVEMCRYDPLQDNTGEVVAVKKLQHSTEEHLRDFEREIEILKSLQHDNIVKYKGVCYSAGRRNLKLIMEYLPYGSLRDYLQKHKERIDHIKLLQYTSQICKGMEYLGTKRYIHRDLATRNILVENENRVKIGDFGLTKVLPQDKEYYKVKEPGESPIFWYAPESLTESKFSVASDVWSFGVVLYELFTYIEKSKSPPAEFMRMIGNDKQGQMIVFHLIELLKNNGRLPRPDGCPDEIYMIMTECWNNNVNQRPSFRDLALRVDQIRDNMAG
Chain of IKKε (Q14164 whole entry): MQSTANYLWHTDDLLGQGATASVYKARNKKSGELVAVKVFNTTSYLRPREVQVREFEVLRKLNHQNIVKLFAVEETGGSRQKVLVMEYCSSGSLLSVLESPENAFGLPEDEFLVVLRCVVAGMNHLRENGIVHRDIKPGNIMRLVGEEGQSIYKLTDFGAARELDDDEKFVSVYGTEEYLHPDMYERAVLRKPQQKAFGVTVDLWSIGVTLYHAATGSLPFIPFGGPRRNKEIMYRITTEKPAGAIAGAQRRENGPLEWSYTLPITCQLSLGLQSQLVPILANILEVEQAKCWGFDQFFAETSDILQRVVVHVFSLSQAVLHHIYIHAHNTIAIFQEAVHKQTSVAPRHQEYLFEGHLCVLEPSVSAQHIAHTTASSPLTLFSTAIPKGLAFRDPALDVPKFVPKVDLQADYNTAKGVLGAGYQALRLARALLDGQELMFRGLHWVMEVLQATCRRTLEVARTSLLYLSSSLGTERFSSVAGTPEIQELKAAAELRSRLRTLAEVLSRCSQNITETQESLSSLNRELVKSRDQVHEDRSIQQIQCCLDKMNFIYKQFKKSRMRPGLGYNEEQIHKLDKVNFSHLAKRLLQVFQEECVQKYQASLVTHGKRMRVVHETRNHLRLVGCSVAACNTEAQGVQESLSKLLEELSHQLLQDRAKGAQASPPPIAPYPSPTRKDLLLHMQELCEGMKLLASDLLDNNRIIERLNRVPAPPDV
Chain of TBK1 (Q9UHD2 whole entry): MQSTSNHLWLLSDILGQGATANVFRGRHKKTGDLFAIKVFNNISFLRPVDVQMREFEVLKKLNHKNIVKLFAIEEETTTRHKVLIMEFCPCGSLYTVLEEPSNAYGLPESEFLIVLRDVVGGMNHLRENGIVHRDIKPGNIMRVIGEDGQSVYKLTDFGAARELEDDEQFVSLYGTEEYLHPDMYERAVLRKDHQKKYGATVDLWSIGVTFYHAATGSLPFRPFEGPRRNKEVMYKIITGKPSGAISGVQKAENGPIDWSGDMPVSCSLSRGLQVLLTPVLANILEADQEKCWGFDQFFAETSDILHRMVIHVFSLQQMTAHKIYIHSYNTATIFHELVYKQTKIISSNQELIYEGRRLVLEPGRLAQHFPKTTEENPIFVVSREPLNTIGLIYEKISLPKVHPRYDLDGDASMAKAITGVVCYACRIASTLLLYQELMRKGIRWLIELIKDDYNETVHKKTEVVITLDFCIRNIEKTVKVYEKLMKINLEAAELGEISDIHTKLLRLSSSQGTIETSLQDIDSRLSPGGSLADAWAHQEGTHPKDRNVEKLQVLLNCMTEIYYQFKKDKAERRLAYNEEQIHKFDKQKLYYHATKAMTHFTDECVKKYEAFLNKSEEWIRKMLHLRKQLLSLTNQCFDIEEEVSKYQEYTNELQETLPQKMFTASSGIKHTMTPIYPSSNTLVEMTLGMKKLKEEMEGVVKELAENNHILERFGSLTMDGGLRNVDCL

Row | IC50 (TBK1) | IC50 (IKKε) | IC50 (hJAK2) | IC50 (IKKε; [1]) | SMILES
1 | 2 nM | 6 nM | 360 nM | – | N#Cc1cc(-c2ncnc(Nc3ccc(N4CCS(=O)(=O)CC4)cc3)n2)ccc1OC1CCOCC1 [Example 1, 5-(4-((4-(1,1-dioxidothiomorpholino)phenyl)amino)-1,3,5-triazin-2-yl)-2-((tetrahydro-2H-pyran-4-yl)oxy)benzonitrile]
2 | 11 nM | – | 212 nM | 28 nM | CC(C#N)C(=O)N1CC[C@H](Oc2ccc(-c3ncnc(Nc4ccc(N5CCN(C6COC6)CC5)cc4)n3)cc2C#N)[C@H](F)C1 (stereo partly drawn) [Example 586, 2-(((3R,4S)-1-(2-cyanopropanoyl)-3-fluoropiperidin-4-yl)oxy)-5-(4-((4-(4-(oxetan-3-yl)piperazin-1-yl)phenyl)amino)-1,3,5-triazin-2-yl)benzonitrile]
3 | 1000 nM | ≥ 1000 nM | 237 nM | – | Cc1cc(C)n(CCOc2ccc(-c3ncnc(Nc4ccc(N5CCN(C6COC6)CC5)cc4)n3)cc2C#N)n1 [Example 609, 2-(2-(3,5-dimethyl-1H-pyrazol-1-yl)ethoxy)-5-(4-((4-(4-(oxetan-3-yl)piperazin-1-yl)phenyl)amino)-1,3,5-triazin-2-yl)benzonitrile]
4 | 15 nM | 61 nM | 877 nM | – | C[C@@H]1C[C@@H](Oc2ccc(-c3ncnc(Nc4ccc(N5CCN(C6COC6)CC5)cc4)n3)cc2C#N)CCN1C(=O)CO [Example 168, 2-(((2R,4S)-1-(2-hydroxyacetyl)-2-methylpiperidin-4-yl)oxy)-5-(4-((4-(4-(oxetan-3-yl)piperazin-1-yl)phenyl)amino)-1,3,5-triazin-2-yl)benzonitrile]
5 | 2 nM | 7 nM | 988 nM | – | N#Cc1cc(-c2ncnc(Nc3ccc(N4CCN(C5COC5)CC4)c(F)c3)n2)ccc1OC1CCOCC1 [Example 27, 5-(4-((3-fluoro-4-(4-(oxetan-3-yl)piperazin-1-yl)phenyl)amino)-1,3,5-triazin-2-yl)-2-((tetrahydro-2H-pyran-4-yl)oxy)benzonitrile]
6 | 2 nM | – | 782 nM | 1 nM | Cc1cc(Nc2ncnc(-c3ccc(O[C@H]4CCN(C(=O)[C@H](C)O)C[C@H]4F)c(C#N)c3)n2)ccc1C1CCN(C=O)CC1 [Example 493, 2-(((3R,4S)-3-fluoro-1-((S)-2-hydroxypropanoyl)piperidin-4-yl)oxy)-5-(4-((4-(1-formylpiperidin-4-yl)-3-methylphenyl)amino)-1,3,5-triazin-2-yl)benzonitrile]
7 | 2 nM | 1 nM | 72 nM | – | COc1cc(Nc2ncnc(-c3ccc(O[C@H]4CCN(C(=O)[C@H](C)O)C[C@H]4F)c(C#N)c3)n2)ccc1N1CCC(N2CCOCC2)CC1 [Example 326, 2-(((3R,4S)-3-fluoro-1-((S)-2-hydroxypropanoyl)piperidin-4-yl)oxy)-5-(4-((3-methoxy-4-(4-morpholinopiperidin-1-yl)phenyl)amino)-1,3,5-triazin-2-yl)benzonitrile]

The next lines start with the molecule.

Row | SMILES | IC50 (TBK1) | IC50 (IKKε) | IC50 (hJAK2) | IC50 (IKKε; [1])
8 | CC1(C)CN(C(=O)[C@@H]2CCC(=O)N2)C[C@H](F)[C@@H]1Oc1ccc(-c2ncnc(Nc3ccc(N4CCN(C5COC5)CC4)cc3)n2)cc1C#N [Example 444] | 27 nM | – | 476 nM | 88 nM
9 | COc1ccc(-c2ncnc(Nc3ccc(N4CCN(C5COC5)CC4)cc3)n2)cc1C#N [Example 104, 2-methoxy-5-(4-((4-(4-(oxetan-3-yl)piperazin-1-yl)phenyl)amino)-1,3,5-triazin-2-yl)benzonitrile] | 42 nM | 215 nM | 328 nM | –
10 | C[C@@H]1C[C@@H](O)CN1c1ccc(-c2ncnc(Nc3ccc(N4CCN(C5COC5)CC4)cc3)n2)cc1C#N [Example 204, 2-((2R,4R)-4-hydroxy-2-methylpyrrolidin-1-yl)-5-(4-((4-(4-(oxetan-3-yl)piperazin-1-yl)phenyl)amino)-1,3,5-triazin-2-yl)benzonitrile] | 1 nM | 18 nM | 47 nM | –
11 | N#Cc1cc(-c2ncnc(Nc3ccc(N4CCN(C5COC5)CC4)cc3)n2)ccc1N1CC[C@H](F)C1 [Example 201, (S)-2-(3-fluoropyrrolidin-1-yl)-5-(4-((4-(4-(oxetan-3-yl)piperazin-1-yl)phenyl)amino)-1,3,5-triazin-2-yl)benzonitrile] | 1 nM | 5 nM | 69 nM | –
12 | C[C@H](O)C(=O)N1CC[C@H](Oc2ccc(-c3ncnc(Nc4ccc(N5C[C@@H](C)N(C6COC6)C[C@@H]5C)cc4)n3)cc2C#N)[C@H](F)C1 [Example 265, 5-(4-((4-((2S,5R)-2,5-dimethyl-4-(oxetan-3-yl)piperazin-1-yl)phenyl)amino)-1,3,5-triazin-2-yl)-2-(((3R,4S)-3-fluoro-1-((S)-2-hydroxypropanoyl)piperidin-4-yl)oxy)benzonitrile] | 5 nM | 4 nM | 426 nM | –
13 | CNC(=O)N1CCC(Oc2ccc(-c3ncnc(Nc4ccc(N5CCN(C6COC6)CC5)cc4)n3)cc2C#N)CC1 [Example 41, 4-(2-cyano-4-(4-((4-(4-(oxetan-3-yl)piperazin-1-yl)phenyl)amino)-1,3,5-triazin-2-yl)phenoxy)-N-methylpiperidine-1-carboxamide] | 35 nM | 110 nM | > 1000 nM | –
14 | N#Cc1cc(-c2ncnc(Nc3ccc(N4CCN(C5COC5)CC4)cc3)n2)ccc1NC(=O)CC(F)(F)F [Example 496, N-(2-cyano-4-(4-((4-(4-(oxetan-3-yl)piperazin-1-yl)phenyl)amino)-1,3,5-triazin-2-yl)phenyl)-3,3,3-trifluoropropanamide] | 6 nM | – | 8 nM | 8 nM
15 | N#Cc1cc(-c2ncnc(Nc3ccc(N4CCN(C5COC5)CC4)cc3)n2)ccc1O[C@H]1CCN(C(=O)N2CC[C@@H](O)C2)C[C@H]1F [Example 425, 2-(((3R,4S)-3-fluoro-1-((R)-3-hydroxypyrrolidine-1-carbonyl)piperidin-4-yl)oxy)-5-(4-((4-(4-(oxetan-3-yl)piperazin-1-yl)phenyl)amino)-1,3,5-triazin-2-yl)benzonitrile] | 7 nM | – | 590 nM | 21 nM
16 | Cc1cc(Nc2ncnc(-c3ccc(O[C@H]4CCN(C(=O)CC#N)C[C@H]4F)c(C#N)c3)n2)ccc1C1CCN(C)CC1 [Example 488, 2-(((3R,4S)-1-(2-cyanoacetyl)-3-fluoropiperidin-4-yl)oxy)-5-(4-((3-methyl-4-(1-methylpiperidin-4-yl)phenyl)amino)-1,3,5-triazin-2-yl)benzonitrile] | 4 nM | – | 131 nM | 1 nM
17 | N#Cc1cc(-c2ncnc(Nc3ccc(N4CCO[C@@H](CO)C4)cc3)n2)ccc1OC1CCNCC1(F)F (stereo partly drawn) [Example 226, 2-((3,3-difluoropiperidin-4-yl)oxy)-5-(4-((4-((R)-2-(hydroxymethyl)morpholino)phenyl)amino)-1,3,5-triazin-2-yl)benzonitrile] | 5 nM | 29 nM | 311 nM | –
18 | N#Cc1cc(-c2ncnc(Nc3ccc(N4CCN(C5COC5)CC4)cc3)n2)ccc1O[C@@H]1CCN(C(=O)CCO)C1 [Example 89, (R)-2-((1-(3-hydroxypropanoyl)pyrrolidin-3-yl)oxy)-5-(4-((4-(4-(oxetan-3-yl)piperazin-1-yl)phenyl)amino)-1,3,5-triazin-2-yl)benzonitrile] | 16 nM | 52 nM | 359 nM | –
